Source: PubChem BioAssay AID2060894 (Molecular Pharmacology Branch, DTP, NCI, 2025)

Tested on: K12877-001-R-J1-PDC complex spheroid viability
Assay: Anticancer human tumor K12877-001-R-J1-PDC patient-derived lung adenocarcinoma cell line growth inhibition [RAS]
Conditions: for IC50: curve of first compound; for viability, T/C: stronger effect = lower value
How it was run: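 Agents were tested in combination matrices in half-log decrements from a top concentration at or near clinical Cmax (10 microM if undetermined). Targets were multi-cell spheroids of tumour lines plus HUVEC and MSC stromal cells.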

[1] = second compound 0.0316 µM, first compound 0.0316 µM
[2] = second compound 0.0316 µM, first compound 0.1 µM
[3] = second compound 0.0316 µM, first compound 0.316 µM
[4] = second compound 0.0316 µM, first compound 1 µM
[5] = second compound 0.0316 µM, first compound 3.16 µM
[6] = second compound 0.0316 µM, first compound 10 µM
[7] = second compound 0.1 µM, first compound 0.0316 µM
[8] = second compound 0.1 µM, first compound 0.1 µM
[9] = second compound 0.1 µM, first compound 0.316 µM
[10] = second compound 0.1 µM, first compound 1 µM
[11] = second compound 0.1 µM, first compound 3.16 µM
[12] = second compound 0.1 µM, first compound 10 µM
[13] = second compound 0.316 µM, first compound 0.0316 µM
[14] = second compound 0.316 µM, first compound 0.1 µM
[15] = second compound 0.316 µM, first compound 0.316 µM
[16] = second compound 0.316 µM, first compound 1 µM
[17] = second compound 0.316 µM, first compound 3.16 µM
[18] = second compound 0.316 µM, first compound 10 µM
[19] = second compound 1 µM, first compound 0.0316 µM
[20] = second compound 1 µM, first compound 0.1 µM
[21] = second compound 1 µM, first compound 0.316 µM
[22] = second compound 1 µM, first compound 1 µM
[23] = second compound 1 µM, first compound 3.16 µM
[24] = second compound 1 µM, first compound 10 µM
[25] = second compound 3.16 µM, first compound 0.0316 µM
[26] = second compound 3.16 µM, first compound 0.1 µM
[27] = second compound 3.16 µM, first compound 0.316 µM
[28] = second compound 3.16 µM, first compound 1 µM
[29] = second compound 3.16 µM, first compound 3.16 µM
[30] = second compound 3.16 µM, first compound 10 µM
[31] = second compound 10 µM, first compound 0.0316 µM
[32] = second compound 10 µM, first compound 0.1 µM
[33] = second compound 10 µM, first compound 0.316 µM
[34] = second compound 10 µM, first compound 1 µM
[35] = second compound 10 µM, first compound 3.16 µM
[36] = second compound 10 µM, first compound 10 µM
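Note: spheroids exposed to agents for one week before readout.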
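Throughout, for viability, T/C: tumour cells co-cultured with HUVEC and mesenchymal stem cells in spheroids.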

In the case of `CC(C)NCC(C(=O)N1CCN(c2ncnc3c2C(C)CC3O)CC1)c1ccc(Cl)cc1` (stereo unspecified) + C#Cc1c(F)ccc2cc(O)cc(-c3ncc4c(N5CC6CCC(C5)N6)nc(OCC56CCCN5CC(F)C6)nc4c3F)c12, the IC50 (second compound 0.0316 µM) is reported as 6.15 µM, the IC50 (second compound 0.1 µM) is reported as 5.29 µM and the IC50 (second compound 0.316 µM) is reported as 7.95 µM. For the same compound, the IC50 (second compound 1 µM) was 5.79 µM, the IC50 (second compound 3.16 µM) was 6.06 µM and the IC50 (second compound 10 µM) was 3.01 µM. The viability, T/C [1] was 101%, the viability, T/C [2] was 95.4% and the viability, T/C [3] was 100%. It also gave a viability, T/C [4] of 86.5%, a viability, T/C [5] of 58.4% and a viability, T/C [6] of 44%. It also gave a viability, T/C [7] of 90%, a viability, T/C [8] of 103% and a viability, T/C [9] of 87.7%. It also gave a viability, T/C [10] of 96.6%, a viability, T/C [11] of 58.8% and a viability, T/C [12] of 39%. It also gave a viability, T/C [13] of 105%, a viability, T/C [14] of 103% and a viability, T/C [15] of 78.9%. The viability, T/C [16] was 92.4%, the viability, T/C [17] was 62% and the viability, T/C [18] was 45.5%. For the same compound, the viability, T/C [19] was 104%, the viability, T/C [20] was 103% and the viability, T/C [21] was 87.6%. The viability, T/C [22] was 95.3%, the viability, T/C [23] was 55.4% and the viability, T/C [24] was 45.1%. The viability, T/C [25] was 105%, the viability, T/C [26] was 102% and the viability, T/C [27] was 99.4%. The viability, T/C [28] was 91.1%, the viability, T/C [29] was 63.6% and the viability, T/C [30] was 39.4%. For the same compound, the viability, T/C [31] was 98%, the viability, T/C [32] was 93.3% and the viability, T/C [33] was 89%. It also gave a viability, T/C [34] of 94.1%, a viability, T/C [35] of 48% and a viability, T/C [36] of 32.8%.
`CC(Nc1ccc2c(c1)OCCn1cc(N3C(=O)OCC3C(F)F)nc1-2)C(N)=O` (stereo unspecified) + C=CC(=O)N1CCN(c2nc(OCC3CCCN3C)nc3c(F)c(-c4nc(N)cc(C)c4C(F)(F)F)c(Cl)cc23)C(C)C1 was tested, and the IC50 (second compound 0.00316 µM) was 1.22 µM, the IC50 (second compound 0.01 µM) was 1.92 µM and the IC50 (second compound 0.0316 µM) was 2.12 µM. It also gave an IC50 (second compound 0.1 µM) of 1.86 µM, an IC50 (second compound 0.316 µM) of 1.16 µM and an IC50 (second compound 1 µM) of 1.43 µM. It also gave a viability, T/C (second compound 0.00316 µM, first compound 0.0316 µM) of 92%, a viability, T/C (second compound 0.00316 µM, first compound 0.1 µM) of 72.8% and a viability, T/C (second compound 0.00316 µM, first compound 0.316 µM) of 57.6%. It also gave a viability, T/C (second compound 0.00316 µM, first compound 1 µM) of 61.6%, a viability, T/C (second compound 0.00316 µM, first compound 3.16 µM) of 44.9% and a viability, T/C (second compound 0.00316 µM, first compound 10 µM) of 21.3%. It also gave a viability, T/C (second compound 0.01 µM, first compound 0.0316 µM) of 86.3%, a viability, T/C (second compound 0.01 µM, first compound 0.1 µM) of 69.6% and a viability, T/C (second compound 0.01 µM, first compound 0.316 µM) of 57.9%. It also gave a viability, T/C (second compound 0.01 µM, first compound 1 µM) of 64%, a viability, T/C (second compound 0.01 µM, first compound 3.16 µM) of 48.7% and a viability, T/C (second compound 0.01 µM, first compound 10 µM) of 18.7%. It also gave a viability, T/C [1] of 74.3%, a viability, T/C [2] of 78.4% and a viability, T/C [3] of 57.6%. It also gave a viability, T/C [4] of 63.1%, a viability, T/C [5] of 46.2% and a viability, T/C [6] of 16.8%. For the same compound, the viability, T/C [7] was 76.7%, the viability, T/C [8] was 64.7% and the viability, T/C [9] was 65%. The viability, T/C [10] was 63.2%, the viability, T/C [11] was 40.4% and the viability, T/C [12] was 15%. For the same compound, the viability, T/C [13] was 75.9%, the viability, T/C [14] was 79.1% and the viability, T/C [15] was 62.3%. For the same compound, the viability, T/C [16] was 50.9%, the viability, T/C [17] was 37.6% and the viability, T/C [18] was 19.1%. The viability, T/C [19] was 77%, the viability, T/C [20] was 70.9% and the viability, T/C [21] was 62.2%. It also gave a viability, T/C [22] of 53.1%, a viability, T/C [23] of 43.5% and a viability, T/C [24] of 19.6%.
For `NC1c2ccccc2OC12CCN(c1cnc3c(N4CCCc5ncccc54)n[nH]c3n1)CC2` (stereo unspecified) + C#Cc1c(F)ccc2cc(O)cc(-c3ncc4c(N5CC6CCC(C5)N6)nc(OCC56CCCN5CC(F)C6)nc4c3F)c12, the IC50 (second compound 0.0316 µM) was > 10 µM, the IC50 (second compound 0.1 µM) was > 10 µM and the IC50 (second compound 0.316 µM) was > 10 µM. The IC50 (second compound 1 µM) was > 10 µM, the IC50 (second compound 3.16 µM) was > 10 µM and the IC50 (second compound 10 µM) was > 10 µM. The viability, T/C [1] was 104%, the viability, T/C [2] was 92.3% and the viability, T/C [3] was 86.8%. It also gave a viability, T/C [4] of 93.1%, a viability, T/C [5] of 85.3% and a viability, T/C [6] of 50.4%. For the same compound, the viability, T/C [7] was 106%, the viability, T/C [8] was 91.1% and the viability, T/C [9] was 90%. The viability, T/C [10] was 78.9%, the viability, T/C [11] was 84.2% and the viability, T/C [12] was 58.9%. It also gave a viability, T/C [13] of 98.4%, a viability, T/C [14] of 93.2% and a viability, T/C [15] of 88.5%. The viability, T/C [16] was 86.8%, the viability, T/C [17] was 74.2% and the viability, T/C [18] was 55.8%. It also gave a viability, T/C [19] of 105%, a viability, T/C [20] of 97.1% and a viability, T/C [21] of 86.8%. The viability, T/C [22] was 87.6%, the viability, T/C [23] was 71.2% and the viability, T/C [24] was 54.8%. The viability, T/C [25] was 99.7%, the viability, T/C [26] was 84.8% and the viability, T/C [27] was 104%. The viability, T/C [28] was 87.8%, the viability, T/C [29] was 72.7% and the viability, T/C [30] was 55.1%. It also gave a viability, T/C [31] of 90.4%, a viability, T/C [32] of 97.6% and a viability, T/C [33] of 102%. It also gave a viability, T/C [34] of 91.8%, a viability, T/C [35] of 64.9% and a viability, T/C [36] of 63.8%.
